Assay results: patent US20110165128A1, “HOMING IN MESENCHYMAL STEM CELLS” (Columbia University in the City of New York, priority 2008, published 2011)

System: adhesion of hMSCs to HUVECs
Assay: Adhesion assay: adhesion of hMSCs to endothelial cells (HUVECs)
Type: cell-based, human
Settings: 0.5 μg/ml SDF-1 or 10 μM AMD3100
From the text: Exposure of cells to hypoxia: HUVECs were exposed to hypoxia in a BD GasPak EZ Anaerobe Gas Generating Pouch System with an Indicator (BD Biosciences) as described (Potapova, 2007). As certified by the manufacturer, the Anaerobe Gas Generating Pouch System produces an atmosphere containing 10% carbon dioxide and 1% oxygen.
Adhesion Assay: Adhesion of hMSCs to endothelial cells was studied using hMSCs isolated from a monolayer or 3 day old hMSC spheroids. Cells were dissociated using 0.25% trypsin-EDTA solution (Lonza) for 15 min in the case of hMSC monolayers, or for 90 min in the case of the spheroids. Trypsinization was stopped by addition of trypsin inhibitor solution (Lonza). Isolated cells were washed with PBS, labeled with 2 μg/ml Calcein AM in HBSS for 45 min at 37 °C in a humidified atmosphere of 5% CO2, washed with HBSS and resuspended in DMEM supplemented with 5% fetal bovine serum. HUVECs were plated in 24 well plates and maintained in EBM-2 growth media for 2-3 days until they reached confluence. For the adhesion assay, EBM-2 media was replaced with 0.5 ml of DMEM supplemented with 5% fetal bovine serum. hMSCs (10,000 cells per well) were added to endothelial cells. The adhesion assay was performed in the presence 0.5 μg/ml SDF-1, 10 μM AMD3100 or without additives. Plates were placed on a rotation platform (30 rotations per min) and incubated for 30 min at 37° C. […] Fluorescence was acquired from the bottom of the plates using a POLARstar OPTIMA microplate reader at excitation/emission wavelengths of 485/520 nm. Background fluorescence was determined in the wells containing no hMSCs but a monolayer of endothelial cells. Total cell load was estimated as the fluorescence from non-washed wells with added hMSCs. A minimum six wells were used to estimate background fluorescence, total cell load or fluorescence from adhered cells. Percent of bound cells was calculated as a ratio between fluorescence of adhered cells and total cell load after subtraction of background fluorescence. […]

c1cc(CN2CCCNCCNCCCNCC2)ccc1CN1CCCNCCNCCCNCC1 [AMD3100]
effect on the adhesion of cells from the spheroids to endothelial cells preexposed to hypoxia (cells from 3 day old hMSC spheroids, HUVECs pre-exposed to hypoxia): no effect
stimulation of the adhesion of cells from the spheroids to normoxic endothelial cells (cells from 3 day old hMSC spheroids, normoxic HUVECs): 1.7±0.4 times
effect on the adhesion of hMSCs from a monolayer to endothelial cells (hMSCs from a monolayer, normoxic or pre-exposed to hypoxia HUVECs): Neither SDF-1 nor AMD3100 affected the adhesion
